What is called Kd is a measure of binding affinity in units of concentration. A low value points to a tighter complex.

The target in the assay is T1, SyPII (Synechococcus elongatus, UniProt P0A3F4).
T1 construct: Strep-tag; made in house
The experiment in a line: ITC binding of small effector molecules to cyanobacterial SyPII. On the set-up: species or system Synechococcus elongatus PCC 7942. As to the method: To gain additional insights into the ligand binding properties of PpPII in comparison to cyanobacterial and chloroplastid PII proteins, isothermal titration calorimetry (ITC) experiments were performed using highly purified Strep-tagged or His-tagged recombinant PpPII, SyPII, CrPII, and PhyscoPII proteins (Supplementary Fig. S1) with different protein/ligand/ concentrations to determine the best fitting conditions of the binding model. The titration experiments were repeated with different protein preparations to confirm the reproducibility of the results. The raw isothermal data were fitted into one-binding site as well as three-sequential binding sites to define the best fitting model. Fitting using a one binding site model states an average Kd value for all available binding sites and the mean of the stoichiometry of bound ligands.
The ITC experiments were done using a VP-ITC microcalorimeter (MicroCal, LCC). All details for determination of binding constants for small effector molecules using ITC are fully described in the supplementary information. Heat isotherms of the dilution of the ligand in the cell buffer were collected in a blank run for each experiment in the absence of protein. The binding isotherms were calculated from received data and fitted to one-site and three-sequential binding sites models using the MicroCal ORIGIN software (Northampton) as described. All titrations were performed in duplicates with different purification batches of recombinant PII proteins. The association binding constant (Ka) was generated from the software by de-convolution and curve fitting. For calculation of dissociation constant (Kd), the Ka value was inversed.
Supplementary Information […]
Determination of Binding Constants for Small Effector Molecules using Isothermal […]
The binding of the small effector molecules to the recombinant PII proteins was tested using isothermal titration calarmity (ITC); VP-ITC microcalorimeter (MicroCal). All titrations were performed on 20°C using […] injection syringe with injection 6 µl or 10 µl of the tested ligands for 45 or 29 times, respectively into the cell (1.4 ml) with continuous stirring at 155 rpm. All tested ligands were high grade, prepared freshly in the same buffer of the protein and purchased from Sigma-Aldrich. Heat isotherms for the dilution of the ligand in the cell buffer were collected in a blank run in the absence of protein. The received calorimetric data were analyzed using MicroCal Origin software and fitted into one-site and three-sequential binding sites models, as indicated by the manufacture for calculation of binding isotherms9. For data reproducibility, the titrations were performed in duplicates with different purification batches of recombinant PII proteins. The association binding constant (Ka) was generated from the software by de-convolution and curve fitting. For calculation of dissociation constant (Kd), the Ka value was inversed. […]
For determination the binding isotherms of cyanobacterial SyPII protein, a strep-tagged recombinant protein (20 µM trimeric concentration) was overexpressed and used as described previously9, 15, in a buffer composed of 10 mM Hepes-NaOH, 50 mM KCl, 50 mM NaCl, and 1

T1 sequence (P0A3F4 whole entry): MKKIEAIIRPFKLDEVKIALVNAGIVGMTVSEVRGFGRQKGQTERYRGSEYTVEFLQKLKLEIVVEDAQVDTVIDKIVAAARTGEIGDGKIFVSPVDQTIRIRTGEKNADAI

As to `Nc1ncnc2c1ncn2[C@@H]1O[C@H](COP(=O)(O)OP(=O)(O)O)[C@@H](O)[C@H]1O` [ADP], the “ADP concentration at which the enthalpy reached a maximum (biphasic titration curve)” value (ADP titrated in the presence of 1 mM 2-OG) was 80.0 ± 7.1 µM. For the same compound, the Kd was 45.8 ± 44 µM (Average Kd (one-site binding model), in presence 2-OG (1 mM) and 150 µM ADP); 10.7 ± 1.9 µM (Kd1 (three-sites binding model), in presence 2-OG (1 mM) and 150 µM ADP); 26.4 ± 4.2 µM (Kd2 (three-sites binding model), in presence 2-OG (1 mM) and 150 µM ADP); 101 ± 103 µM (Kd3 (three-sites binding model), in presence 2-OG (1 mM) and 150 µM ADP). Further, the “N, number of calculated binding sites (one-site binding model)” value (in presence 2-OG (1 mM) and 150 µM ADP) is on record as 4.0.

Source of the values: publication PMC5768801, “The PII signaling protein from red algae represents an evolutionary link between cyanobacterial and Chloroplastida PII proteins” (Scientific Reports, 2018).
